Data as given in patent US9101613B2, “Methods for treating neurological disease” (Neurim Pharmaceuticals (1991) Ltd., priority 2006, dated 2015).

Experiments:
[1] = system: 3T3-L1 adipocytes; experiment: 2-[3H]-deoxy-d-glucose uptake in FFA-treated 3T3-L1 adipocyte model; type: cell-based
Protocol: Adipocytes were glucose-starved for 1 h in Hepes-salt buffer containing 2% FFA-free BSA. FFA (free fatty acids) were then added to the cells at the indicated concentrations (300 μM) for the indicated times (3 h). 10 min before the end of the FFA treatment, the cells were stimulated with insulin (20 nM)/melatonin (10 nM)/test compounds (10 nM) at 37° C. 2-[^3H]-deoxy-d-glucose at 1 μCi/mL and 0.1 mM unlabeled 2-deoxyglucose in KRP-HEPES buffer was added and cells were incubated for 10 min at room temperature. Non-specific glucose uptake was measured by parallel incubations in the presence of 10 μM cytochalasin B, which blocks transporter-mediated glucose uptake, and was subtracted from total uptake in each assay. Cells were then washed three times with ice-cold phosphate buffered saline (PBS) and solubilized in 1M NaOH for 20 minutes. The sample was then counted using a scintillation counter. 2-[^3H]-deoxy-d-glucose uptake was assayed in triplicates for each condition in at least 3 independent experiments. 2-[^3H]-deoxy-d-glucose uptake (counts per minute-cpm) are presented as mean+SE of triplicates in a representative experiment or results of three independent experiments. ANOVA test was used with significance of P<0.05 (Table 7).

[2] = system: PC12 cells; experiment: Glutamate-induced loss of cell viability in PC12 cells (MTT); type: cell-based; settings: 1 uM, without glutamate
Protocol: For the cell viability assays, 24 h after seeding in 96-well plates, the cultures were pretreated with N-[2-(5-methoxy-indol-3-yl)-ethyl]-comanilamide (100 pm, 1 nM, 10 nM, 100 nM, 1 uM and 10 uM) or melatonin (1 uM) for 0 h before exposure to 4 mM glutamate. After 24 h incubation, cellular viability was evaluated by MTT assay.
PC12 cell viability was determined by the conventional 3-(4,5-dimethylthiazol-2-yl)-2,5-diphenyltetrazolium bromide (MTT) assay. PC12 cells were treated with MTT solution (0.5 mg/ml) and were then incubated at 37° C. for 4 hrs. The medium was removed and 150 μl DMSO/well was added to dissolve formazan. The absorbance at 570 nm was recorded using an enzyme-linked immunosorbent assay reader and the percentage of cell growth inhibition was calculated as follows: Cell viability (%)=A570 (treatment)/A570 (control)×100.

[3] = system: CD1 mice; experiment: Motimeter assay (motor activity and rearing); type: in vivo; settings: 100 mg/kg i.p.
Protocol: Mice were starved for 16 hrs before treatment. Male CD1 mice, weighing 25-30 g, were treated intraperitoneally with melatonin, N-[2-(5-methoxy-indol-3-yl)-ethyl]-comanilamide or N-[2-(5-methoxy-indol-3-yl)-ethyl]-commenamide in a dose of 100 mg/kg. The horizontal (i.e. locomotion) and vertical (i.e. rearing) movements were measured for 5 minutes two times, 30 and 60 min after treatment. Eight mice/group were used. The 4-channel activity meter is a square-shaped frame containing transparent infra-red permeable acrylic cages. The frames feature two pairs of light-beam strips for measuring horizontal movements, and two pairs for measuring rearing. Each strip is equipped with 16 infra-red sensors.

[4] = target: T1, MT-3 receptor (Mesocricetus auratus, UniProt A0ABM2YAB8); experiment: 125I-melatonin binding in hamster brain membranes, MT-3
T1 construct: from tissue; host or cells: hamster brain membranes
T1 sequence (A0ABM2YAB8 1-231): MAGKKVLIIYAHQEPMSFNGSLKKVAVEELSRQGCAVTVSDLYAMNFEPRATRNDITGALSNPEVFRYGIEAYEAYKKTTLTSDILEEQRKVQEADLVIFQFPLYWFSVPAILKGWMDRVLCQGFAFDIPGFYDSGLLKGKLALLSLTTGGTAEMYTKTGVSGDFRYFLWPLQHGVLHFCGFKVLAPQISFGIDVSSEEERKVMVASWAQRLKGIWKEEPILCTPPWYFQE
Protocol: Aliquots of suspended membranes of human recombinant CHP-K1 (Chinese hamster ovary) cells stably expressing human melatonin-1 or melatonin-2 (MT-1 or MT-2) receptors or of hamster brain (MT-3) were incubated at 25° C. with 0.05 nM ^125I-melatonin in buffer (25 mM HEPES, pH 7.4, 5 mM MgCl2, 1 mM CaCl2, 0.5% BSA) or with 0.1 nM for MT-3 alone or in the presence of 1 nM, 10 nM, 0.1 μM, 1 μM and 10 μM of test substances N-[2-(5-methoxy-indol-3-yl)-ethyl]-commenamide, N-[2-(5-methoxy-indol-3-yl)-ethyl]-comanilamide, N-[2-(5-methoxy-indol-3-yl)-ethyl]-coumalylamide, N-[2-(5-methoxy-indol-3-yl)-ethyl]-2-methoxy-commenamide, N-[2-(5-methoxy-indol-3-yl)-ethyl]-chelidonamide, O-[2-(5-methoxy-indol-3-yl)-ethyl]-comenic ester, N-[2-(5-methoxy-indol-3-yl)-ethyl]-2-Pyrone-6-carboxamide and N-[2-(2-bromo-5-methoxy-indol-3-yl)-ethyl]-coumalylamide for 3 hours for MT-1, 4 hours for MT-2 and 30 min for MT-3. The binding reaction was terminated and the membranes were washed with 4 ml of ice-cold HEPES buffer by vacuum filtration. Membranes were then collected, and the filters containing the bound ^125I-melatonin were assayed for the amount of radioactivity in a […]. Non-specific binding was evaluated using a reaction with 1 μM 6-chloromelatonin (MT-1 and MT-2) or 30 μM melatonin (MT-3).

COc1ccc2[nH]cc(CCNC(C)=O)c2c1 [Melatonin, N-acetyl-5-methoxy-tryptamine, reference compound]
effect on glucose transport in FFA-treated adipocytes ([1]; FFA-impaired insulin signaling): improved glucose transport | 2-[3H]-deoxy-d-glucose uptake (cpm) ([1]; Insulin 20 nM + FFA 300 μM (3 h) + substance 10 nM): 1489 cpm | effect on cell viability without glutamate [2]: had no effect on the cell viability | effect on motor activity and rearing ([3]; 30-35 min and 60-65 min after treatment): did not change significantly the motor activity and rearing | motor activity (horizontal movement) changes (%) 30 min ([3]; 30 min, vs vehicle): −26.5% | motor activity (horizontal movement) 30 min Means ± SE ([3]; 30 min after treatment, 5 min measurement): 316.1 ± 45.5 | motor activity (horizontal movement) changes (%) 60 min ([3]; 60 min, vs vehicle): −19.0% | motor activity (horizontal movement) 60 min Means ± SE ([3]; 60 min after treatment, 5 min measurement): 256.1 ± 27.3 | IC50 ([4]; 0.1 nM 125I-melatonin, 30 min, read-out: MT-3 receptor binding IC50): 47 nM | Ki ([4]; 0.1 nM 125I-melatonin, 30 min, read-out: MT-3 receptor binding KI): 46 nM | inhibition at 10 µM ([4]; read-out: MT-3 receptor binding % inhibition by 10 μM): 100%
